# Data reported in ChEMBL document CHEMBL5512601, “Small-molecule inhibitors targeting apoptosis signal-regulated kinase 1” (Eur J Med Chem, 2023).
# What was measured:
# [1] = biological target: T1, Mitogen-activated protein kinase kinase kinase 5 (Homo sapiens, UniProt Q99683); assay: Inhibition of full length GST-tagged recombinant human ASK1 using MBP as substrate incubated for 20 mins by cell based assay
# T1 sequence (Q99683 whole entry): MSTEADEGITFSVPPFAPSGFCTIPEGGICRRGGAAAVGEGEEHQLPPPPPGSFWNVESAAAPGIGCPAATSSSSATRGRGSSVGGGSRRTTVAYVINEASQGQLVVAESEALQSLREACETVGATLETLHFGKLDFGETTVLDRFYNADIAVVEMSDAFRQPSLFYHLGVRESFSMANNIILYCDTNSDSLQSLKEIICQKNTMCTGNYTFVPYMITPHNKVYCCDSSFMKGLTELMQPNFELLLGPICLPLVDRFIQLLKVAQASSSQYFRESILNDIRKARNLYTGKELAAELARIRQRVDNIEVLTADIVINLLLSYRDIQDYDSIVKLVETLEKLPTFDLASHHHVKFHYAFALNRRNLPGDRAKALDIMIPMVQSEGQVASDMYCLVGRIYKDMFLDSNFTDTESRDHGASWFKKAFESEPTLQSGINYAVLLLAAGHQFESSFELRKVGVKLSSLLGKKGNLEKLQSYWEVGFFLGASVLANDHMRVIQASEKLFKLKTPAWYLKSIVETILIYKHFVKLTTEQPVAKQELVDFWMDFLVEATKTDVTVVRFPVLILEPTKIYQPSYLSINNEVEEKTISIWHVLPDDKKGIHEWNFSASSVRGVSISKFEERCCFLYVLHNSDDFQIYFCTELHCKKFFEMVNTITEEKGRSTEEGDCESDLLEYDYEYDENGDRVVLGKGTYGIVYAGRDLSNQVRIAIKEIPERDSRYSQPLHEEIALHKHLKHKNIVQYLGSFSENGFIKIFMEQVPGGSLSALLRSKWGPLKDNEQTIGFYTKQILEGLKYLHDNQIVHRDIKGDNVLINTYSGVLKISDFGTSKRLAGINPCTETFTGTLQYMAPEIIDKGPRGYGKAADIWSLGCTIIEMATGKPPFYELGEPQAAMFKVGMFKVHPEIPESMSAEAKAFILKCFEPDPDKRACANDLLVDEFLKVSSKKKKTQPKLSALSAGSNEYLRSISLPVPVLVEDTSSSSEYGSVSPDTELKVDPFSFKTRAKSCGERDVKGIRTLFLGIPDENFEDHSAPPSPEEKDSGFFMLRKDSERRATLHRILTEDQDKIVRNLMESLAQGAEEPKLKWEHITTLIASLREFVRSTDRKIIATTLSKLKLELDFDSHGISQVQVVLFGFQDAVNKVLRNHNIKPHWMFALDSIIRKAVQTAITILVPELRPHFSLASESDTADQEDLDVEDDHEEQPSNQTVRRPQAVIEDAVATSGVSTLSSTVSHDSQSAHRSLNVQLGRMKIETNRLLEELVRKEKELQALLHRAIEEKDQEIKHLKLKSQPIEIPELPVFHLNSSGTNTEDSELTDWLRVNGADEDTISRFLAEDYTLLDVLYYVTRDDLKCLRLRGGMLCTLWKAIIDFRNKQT
# [2] = biological target: T1, Mitogen-activated protein kinase kinase kinase 5; assay: Inhibition of full length GST-tagged recombinant human ASK1 using MBP as substrate incubated for 20 mins
# [3] = biological target: T1, Mitogen-activated protein kinase kinase kinase 5; assay: Inhibition of ASK1 (unknown origin) incubated for 2 hrs
# [4] = Unbound brain-to-plasma concentration ratio in rat at 1 mg/kg, iv by LC-MS/MS analysis; format: ADME, organism-based; conditions: brain and plasma, read-out: K(p,uu,brain)
# [5] = biological target: T1, Mitogen-activated protein kinase kinase kinase 5; assay: Inhibition of ASK1 phosphorylation in HEK293T cells incubated for 1 hr; format: cell-based
# Rattus norvegicus [6] = species on record: Rattus norvegicus; assay: Antifibrotic activity CDHFD-NaNO2 rat model assessed as effect on hydroxyproline level; format: functional
# Rattus norvegicus [7] = species on record: Rattus norvegicus; assay: Antifibrotic activity CDHFD-NaNO2 rat model; format: functional
# [8] = Oral bioavailability in Sprague-Dawley rat at 1 mg/kg by LC-MS/MS analysis; format: ADME, organism-based; conditions: in vivo
# [9] = Half life in Sprague-Dawley rat at 1 mg/kg, iv by LC-MS/MS analysis; format: ADME, organism-based; conditions: in vivo
# [10] = biological target: T1, Mitogen-activated protein kinase kinase kinase 5; assay: Inhibition of ASK1 in HEK293 cells; format: cell-based
# [11] = Efflux ratio of apparent permeability across basolateral to apical side over apical to basolateral side in human Caco2 cells by LC-MS/MS analysis; format: ADME, cell-based; conditions: Caco-2
# [12] = Apparent permeability of compound across apical to basolateral side in human Caco2 cells; format: ADME, cell-based; conditions: Caco-2
smiles,measurement,setting,value
Cc1cc(F)c(C(=O)Nc2cccc(-c3nnc4n3CCCC4)n2)cc1-n1nnc(C2CC2)n1,IC50,[1],> 100 nM
same,IC50,[2],> 1000 nM
C[C@H]1CCCOc2ncccc2C(=O)Nc2cccc(n2)-c2nncn21,IC50,[3],< 100 nM
same,Kp uu,[4],≥ 0.1
same,IC50,[5],≤ 1000 nM
Cc1cc(F)c(C(=O)Nc2cccc(-c3nncn3C(C)C)n2)cc1-n1cnc(C2CC2)c1 [SELONSERTIB],Activity,Rattus norvegicus [6],6%
same,Activity,Rattus norvegicus [7],28%
same,bioavailability,[8],75%
Cc1ccc(C(=O)Nc2cccc(-c3nncn3C(C)C)n2)cc1-n1cnc(C2CC2)c1,half-life,[9],1.2 h
same,bioavailability,[8],50%
same,EC50,[10],18 nM
same,efflux ratio,[11],15.4
same,Papp A→B,[12],0.26 ×10⁻⁶ cm/s
